Reference: US9238688B2 (priority 2010, dated 2016)

Experiments:
[1] = tested on: hyaluronic acid synthase gene HAS2; assay: Expression of hyaluronic acid synthase gene HAS2, keratinocyte monolayer culture, real-time PCR; type: cell-based; settings: human epidermal keratinocytes; final retinol concentration 10^−6 M or 10^−5 M; 6, 24 or 48 hours; Experimental Example 1
Protocol: (§1) Human epidermal keratinocytes (Cell Application Inc.) were seeded in a 24-well plate containing a human epidermal keratinocytes growth medium (Cell Application Inc.) so that the number of cells contained in a well was 1.5×10^5, and were cultured under the condition of 5% CO2-95% air and at 37° C. for about two days until the cells reached confluence.
(§2) Meanwhile, each tested substance was dissolved in a small amount of dimethylformamide and added to the medium, and the concentration of dimethylformamide in all experiments was adjusted to 0.1 wt %.
(§3) After culturing for a given time period, the keratinocytes were recovered and RNA was extracted therefrom. Then, the gene expression of hyaluronic acid synthases HAS2 and HAS3 were assessed by real-time PCR using the following primer pairs (Takara Bio Inc.): […]

[2] = tested on: hyaluronic acid synthase gene HAS3; assay: Expression of hyaluronic acid synthase gene HAS3, keratinocyte monolayer culture, real-time PCR; type: cell-based; settings: human epidermal keratinocytes; final retinol concentration 10^−6 M or 10^−5 M; 6, 24 or 48 hours; Experimental Example 1
Protocol: as §1, §2, §3

Row | SMILES | level of HAS2 gene expression (ratio to PPIA, control after 6 hours = 1) [1] | level of HAS3 gene expression (ratio to PPIA, control after 6 hours = 1) [2]
1 | CC(=O)OC/C=C(C)/C=C/C=C(C)/C=C/C1=C(C)CCCC1(C)C [acetic acid retinol ester] | lower levels of gene expression as compared to the retinol-modified collagen | lower levels of gene expression as compared to the retinol-modified collagen
2 | CCCCCCCCCCCCCCCC(=O)OC/C=C(C)/C=C/C=C(C)/C=C/C1=C(C)CCCC1(C)C [palmitic acid retinol ester] | lower levels of gene expression as compared to the retinol-modified collagen | lower levels of gene expression as compared to the retinol-modified collagen
